Measured values published in patent US4632922A, “Oxomorpholinyl dimer and rescue of anthracycline and mitomycin C damage” (The United States of America as represented by the …, priority 1985, dated 1986).

Columns and labels:
[1] = test system: DOX-induced skin ulceration; test: Rescue by DHM3 of DOX-induced skin necrosis (ulceration, induration) in swine; format: in vivo, miniature white swine
Description: In order to produce anthracycline induced tissue damage, clinical grade doxorubicin (DOX) hydrochloride was obtained as a representative anthracycline chemical from the Drug Synthesis Branch, Developmental Therapeutics Program, National Cancer Institute. Each vial contained 10 mg DOX hydrochloride and 50 mg lactose which was reconstituted with 5.0 ml sterile 0.9% NaCl solution to give a final drug concentration of 2.0 mg/ml. DHM3 solution was prepared by dissolving 10 mg in ice-cold water which had been purged with N2 gas for 5 minutes. Dissolution was facilitated by brief sonication to give a final concentration of 10 mg/ml. The solution was kept cold (≈4° C.) and protected from air and light.
Female weanling miniature white swine weighing approximately 12 kg were obtained from the Veterinary Resources Branch, National Institutes of Health. The development of this strain of swine has been described previously (Sachs, et al., Transplantation 22:559-567, 1976). Each animal was housed in a 6×4 ft metabolic cage and was fed standard NIH show chow, 1.5 lbs twice daily.
Each animal was anesthesized by intramuscular injections of ketamine, 20 mg/kg, xylazine, 20 mg/kg, and atropine, 1.0 mg. Following endotracheal intubation anesthesia was maintained with a mixture of nitrous oxide, halothane, and oxygen gas.
(§1) DOX HCl (2.0 mg/ml) was administered intradermally (i.d.) with a 25 gauge needle inserted approximately 4 to 5 mm into the skin. Following the injection of 0.5, 0.75 or 1.0 ml (1.0, 1.5, or 2.0 mg, respectively) DOX solution, the syringe was removed from the hub leaving the needle in place. After the indicated time interval, 1.0 ml (10 mg) DHM3 was injected through the same needle and the needle was then removed. Control sites received 1.0 ml sterile water instead of DHM3. The injection sites were along the mid-lateral aspect of each side of the swine and were 4-5 cm apart (6-8 injection sites per side). One animal was used for a dose experiment where DOX, 0.5 ml/site was injected along one side and 1.0 ml/site was injected along the contralateral side. Fifteen minutes later, DHM3 or water was injected into alternating sites as described above. A second animal received DOX, 0.75 ml/site along both sides. DHM3 or water was injected into alternating sites at times varying from 5 to 120 minutes following DOX administration.
(§2) All lesions were measured by a single observer with metric calipers three times weekly for two weeks, followed by weekly measurements thereafter. The areas of skin ulceration and induration were estimated by the product of the cross perpendicular diameters. The total toxicity of DOX-induced skin ulceration was determined by calculating the area under the ulceration-time curve (AUC) in mm^2 -days.
In order to assess the extent of tissue injury following intradermal DOX or DHM3, incisional biopsies were performed on representative lesions 6 and 20 days following drug injection. These samples were placed in 10% buffered formalin and processed for examination by standard light microscopy (Pathco Inc., Potomac, MD.).

[2] = Kinetics of reaction of DHM3 with daunorubicin in water solvent
Description: A test similar to that described for the same reaction in methanol solvent (vide supra) was run. Oxomorpholinyl dimer DHM3 (1.38 mg, 4.37×10^-3 mmol) was dissolved in 0.5 ml of oxygen-free methanol and quickly transferred without delay into one compartment of the cell. The solvent was promptly removed under vacuum. Daunorubicin hydrochloride ([…]) was dissolved in 100 ml of an aqueous solution of Tris (24.2 mg) and Tris hydrochloride (31.6 mg) and 2.6 ml of this solution (4.18×10^-4 mmol of 6) was introduced into the other compartment of the cell. The sample was freeze-thaw degassed over three cycles as described above, sealed, and placed in a thermostatted cell holder at 10.0±0.1° C. for about 20 min prior to mixing. Full spectra between 320 and 800 nm were recorded every 10 sec for the first 125 sec, and then every 20 sec. From the absorbance change at 620 nm over the first 85 sec (50% reaction of daunorubicin), a non-linear least-squares treatment gave a first order rate constant for bond homolysis of DHM3 (k1) equal to 6×10^-4 sec^-1 and a first order rate constant for destruction of 7 (k2) equal to 2×10^-2 sec^-1. Treatment of the data obtained in the 164-225 sec interval gave k2 =2.8×10^-2 sec^-1.
Thus, when a ten-fold excess of DHM3 is reacted with an oxygen-free 2×10^-4 M solution of 6 in buffered water (pH8) at 10° C., the absorbance of the solution at 618-620 nm, due to the tautomer 7, reaches its maximum after 125 sec and then decreases quickly, with an 80% decrease in 100 sec. Here again the formation and destruction of 7, as calculated from the data obtained in the first 85 sec of reaction, follows consecutive first order kinetics, first order in DHM3 and 7, with k1 =6×10^-4 sec^-1, k2 =2×10^-2 sec^-1 and ε7 =9600. Calculation of k2 from the absorbance data taken after 165 sec of reaction time, when only first order destruction of 7 is observed, gives a value of 2.8×10^-2 sec^-1.

[3] = test system: drug-induced skin necrosis; test: Protection by DHM3 against drug-induced skin necrosis in the swine model; format: in vivo; settings: for Percent Reduction of Maximal Ulcer Size: DHM3 15 min later
Description: as §1
In a separate study, equimolar amounts of several compounds used in experimental or clinical cancer chemotherapy were injected into pig skin using the same method described above. Paired injection sites were treated 15 minutes later with either H2 O or DHM3 in duplicate.
as §2

[4] = DHM3 10 mg 15 min after DOX 2.0 mg i.d.

CC1(CO)COC(=O)C(C)(C2(C)NC(C)(CO)COC2=O)N1 (stereo not shown) [DHM3, bi(3,5-dimethyl-5-hydroxymethyl-2-oxomorpholin-3-yl)]
extent of skin necrosis [1, 4]: greatly reduced
reduction of peak area size of the ulcer [1, 4]: 80%
time to complete healing ([1]; DHM3 10 mg 15 min after DOX 2.0 mg, control 7 weeks): ≤ 5 weeks
AUC (total toxicity of skin ulceration) ([1]; DHM3 10 mg i.d. 5 min after DOX 1.5 mg i.d.): 960 mm^2 . days
AUC (total toxicity of skin ulceration) ([1]; DHM3 10 mg i.d. 15 min after DOX 1.0 mg i.d., mean of 3 lesions, p < .005): 840 ± 420 mm^2 . days
AUC (total toxicity of skin ulceration) ([1]; DHM3 10 mg i.d. 15 min after DOX 1.5 mg i.d.): 2220 mm^2 . days
AUC (total toxicity of skin ulceration) ([1]; DHM3 10 mg i.d. 15 min after DOX 2.0 mg i.d., mean of 3 lesions, p < .001): 1020 ± 420 mm^2 . days
AUC (total toxicity of skin ulceration) ([1]; DHM3 10 mg i.d. 30 min after DOX 1.5 mg i.d.): 3240 mm^2 . days
AUC (total toxicity of skin ulceration) ([1]; DHM3 10 mg i.d. 60 min after DOX 1.5 mg i.d.): 4020 mm^2 . days
AUC (total toxicity of skin ulceration) ([1]; DHM3 10 mg i.d. 90 min after DOX 1.5 mg i.d.): 5340 mm^2 . days
AUC (total toxicity of skin ulceration) ([1]; DHM3 10 mg i.d. 120 min after DOX 1.5 mg i.d.): 8400 mm^2 . days
protection against DOX injury ([1]; DHM3 5 min after DOX): Optimal protection
reduction of the size of surrounding induration ([1]; DHM3 after DOX): observed to parallel the ulcer measurements
color change of stained skin ([1]; DHM3 injected into DOX site): immediately changed to a rusty brown
reduction of DOX induced injury ([1]; DOX 1.0 mg, compared with 2.0 mg): similar
protection against DOX injury ([1]; interval greater than 60 min): no protection is observed
protection against DOX injury ([1]; interval increased to 60 min): Progressively less protection
protection from skin necrosis (maximal ulcer area and time required for healing) ([1]; up to 60 min after i.d. DOX): considerable protection
reactivity with daunorubicin compared with TM-3 ([2]; DHM3 in water vs TM-3 in methanol): approximately the same reactivity
first order rate constant for bond homolysis of DHM3 (k1) ([2]; buffered water (pH8), 10.0±0.1° C., first 85 sec): 0.0006 s⁻¹
Percent Reduction of Maximal Ulcer Size ([3]; against 4'-Epidoxorubicin, Exper. 4): 51%
Percent Reduction of Maximal Ulcer Size ([3]; against 4-Demethoxydaunorubicin, Exper. 4): 79%
Percent Reduction of Maximal Ulcer Size ([3]; against 5-Iminodaunorubicin, Exper. 3): 53%
Percent Reduction of Maximal Ulcer Size ([3]; against Aclarubicin, Exper. 4): 46%
Percent Reduction of Maximal Ulcer Size ([3]; against Adriamycin, Exper. 1): 77%
Percent Reduction of Maximal Ulcer Size ([3]; against Adriamycin, Exper. 2): 40%
Percent Reduction of Maximal Ulcer Size ([3]; against Daunorubicin, Exper. 2): 39%
Percent Reduction of Maximal Ulcer Size ([3]; against Menogaril, Exper. 4): 61%
Percent Reduction of Maximal Ulcer Size ([3]; against Mitomycin C, Exper. 3): 58%
protection against drug-induced skin necrosis ([3]; against Mitoxantrone): no protection observed
protection against drug-induced skin necrosis ([3]; against Vinblastine): no protection observed
protection against drug-induced skin necrosis ([3]; against Vincristine): no protection observed
protection against tissue necrosis ([3]; several anthracycline analogs and mitomycin C): effective in all cases
protection against skin injury ([3]; vinca alkaloid and mitoxantrone): did not protect
